Data published in US12514805B2, “Composition for suppressing skin irritation or inhibiting sebum secretion” (AMOREPACIFIC CORPORATION, priority 2022, dated 2026).

Experiments:
SREBP1 = assay: Genetic analysis of cholesterol/fatty acid transcription factors in sebaceous gland cells: SREBP1; type: cell-based, human; settings: primary sebocytes, cultured 2 days, RT-PCR, FIG. 4
Description: (§1) Primary sebocyte and human sebocyte complete medium were purchased from Celprogen and used. The sebaceous gland cells were dispensed in a 60 mm cell culture dish at a density of 1.25×10^4 cells/dish, and then cultured in a CO2 incubator under the condition of 37° C. and 5% CO2 at about 80% confluency. Thereafter, 0 μM, 1 μM, and 10 μM of the compound of Chemical Formula 1 (Seletinoid G) were treated with the cells, respectively, and the cells were cultured for 2 days, and then changes in transcription factors related to sebum biosynthesis were confirmed.
(§2) The cells were treated with the material of Example 3, and then, cultured for 2 days, and then, the cell growth medium was removed. After that, 1 ml of Trizol (Invitrogen) was added to the cells, and RNA was isolated from the cells according to the RNA isolation method (Invitrogen). The RNA was quantified using a UV detector (HEWLETT PACKARD) at 260 nm and subject to RT-PCR (reverse transcription-polymerase chain reaction).
(§3) Taqman probes were used for genetic analysis of SREBP1(Hs02561944_s1), SREBP2(Hs01081781_m1), fatty acid synthase(FAS: Hs01005622_m1), Acetyl-CoA Carboxylase(ACACA: Hs01046047_m1) for each sample, and normalization was performed with respect to the complementary gene RPL13A (Hs04194366_g1), and the result is shown in FIG. 4.

SREBP2 = assay: Genetic analysis of cholesterol/fatty acid transcription factors in sebaceous gland cells: SREBP2; type: cell-based, human; settings: primary sebocytes, cultured 2 days, RT-PCR, FIG. 4
Description: as §1, §2, §3

[1] = system: fatty acid synthase (FAS); assay: Genetic analysis of cholesterol/fatty acid transcription factors in sebaceous gland cells: FAS; type: cell-based, human; settings: primary sebocytes, cultured 2 days, RT-PCR, FIG. 4
Description: as §1, §2, §3

[2] = system: Acetyl-CoA Carboxylase (ACACA); assay: Genetic analysis of cholesterol/fatty acid transcription factors in sebaceous gland cells: ACACA; type: cell-based, human; settings: primary sebocytes, cultured 2 days, RT-PCR, FIG. 4
Description: as §1, §2, §3

[3] = system: SREBP1, SPERBP2, FAS, and ACACA; assay: Comparison of retinoic acid signal transduction pathway modifiers: sebum-related gene expression in sebaceous gland cells; type: cell-based, human; settings: for effect on sebum-related gene expression (SREBP1, SPERBP2, FAS, ACACA): sebaceous gland cells treated with 1 μM and 10 μM of each material, FIG. 5
Description: Primary sebocyte and human sebocyte complete medium were purchased from Celprogen and used.
After that, 1 ml of Trizol (Invitrogen) was added to the cells, and RNA was isolated from the cells according to the RNA isolation method (Invitrogen). The RNA was quantified using a UV detector (HEWLETT PACKARD) at 260 nm and subject to RT-PCR (reverse transcription-polymerase chain reaction).
as §3

sebaceous gland cells = assay: Cytotoxicity in sebaceous gland cells during the comparison of Example 5; type: cell-based, human; settings: 10 μM
[4] = system: retinoic acid receptor (RAR); settings: from paper of the Society of Cosmetic Scientists of Korea (2003); cited from earlier work

In the case of `O=C(/C=C/c1ccc2c(c1)OCO2)OCc1cc(=O)c(O)co1` [Seletinoid G, (5-hydroxy-4-oxopyran-2-yl)methyl (E)-3-(1,3-benzodioxol-5-yl)prop-2-enoate], the “expression level of SREBP1 reduced by” value (SREBP1; 1 μM) is reported as “about 40%”, the “expression level of SREBP1 reduced by” value (SREBP1; 10 μM) is reported as “about 60%” and the “expression level of SPERBP2 reduced by” value (SREBP2; 1 μM) is reported as “about 40%”. For the same molecule, the “expression level of SPERBP2 reduced by” value (SREBP2; 10 μM) was about 55%, the “expression level of FAS reduced by” value ([1]; 1 μM) was about 30% and the “expression level of FAS reduced by” value ([1]; 10 μM) was about 45%. For the same molecule, the “expression level of ACACA reduced by” value ([2]; 1 μM) was about 30%, the “expression level of ACACA reduced by” value ([2]; 10 μM) was “about 60%” and the “effect on sebum-related gene expression (SREBP1, SPERBP2, FAS, ACACA)” value (from here on “effect on sebum-related gene expression”) [3] was “effect of suppressing sebum-related gene expression”. The “reduction of the expression level of the transcription factors (SREBP1a, SPERBP2, FAS, ACACA)” value ([3]; sebaceous gland cells, 10 μM) was “more than 60%”, the cytotoxicity (sebaceous gland cells) was “without causing cytotoxicity” and the “binding to retinoic acid receptor (specificity)” value [4] was “specifically binds to RARγ”.
For `CC1=C(/C=C/C(C)=C/C=C/C(C)=C/C(=O)Nc2ccc(O)cc2)C(C)(C)CCC1` [fenretinide, reference compound], the “effect on sebum-related gene expression” value [3] was “effect of suppressing sebum-related gene expression”.
In the case of `Clc1cccc(C(c2ccc3[nH]cnc3c2)n2ccnc2)c1` (stereo not drawn) [liarozole, reference compound], the “effect on sebum-related gene expression” value [3] is reported as “did not show a significant difference”.
In the case of `CC1=C(/C=C/C(C)=C/C=C/C(C)=C/C(=O)O)C(C)(C)CCC1` [retinoic acid, reference compound], the cytotoxicity (sebaceous gland cells) is reported as “some cytotoxicity”.
